Data taken from paper PMC4869360, “An allosteric role for receptor activity-modifying proteins in defining GPCR pharmacology” (Cell Discovery, 2016).
Numbering of substitutions follows the chain as printed.

Columns and labels:
Type in all cases: cell-based
Conditions in all cases: Cos-7, mean±s.e.m., read-out: pEC50 mutant (converted)
[1] = target: T1, CT(a) receptor, H121A mutant (Homo sapiens, UniProt P30988, H121A); assay: cAMP assay, H121A CT(a)
T1 sequence (P30988 25-474 H121A): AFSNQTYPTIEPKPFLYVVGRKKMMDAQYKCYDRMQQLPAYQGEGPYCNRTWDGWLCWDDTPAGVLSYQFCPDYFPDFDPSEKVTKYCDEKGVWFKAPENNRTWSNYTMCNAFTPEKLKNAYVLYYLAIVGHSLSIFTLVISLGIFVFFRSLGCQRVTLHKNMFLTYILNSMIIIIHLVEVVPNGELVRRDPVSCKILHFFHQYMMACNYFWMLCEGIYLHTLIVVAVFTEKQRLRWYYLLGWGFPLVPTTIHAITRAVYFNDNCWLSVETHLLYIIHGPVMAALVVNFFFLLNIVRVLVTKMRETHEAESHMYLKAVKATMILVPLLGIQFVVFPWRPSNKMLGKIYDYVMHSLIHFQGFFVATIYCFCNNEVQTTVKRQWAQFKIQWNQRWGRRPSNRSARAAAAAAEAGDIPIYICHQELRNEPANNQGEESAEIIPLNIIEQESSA
Description: (§1) This is the insert-negative form of the receptor and is referred to as hCT(a), to comply with International Union of Pharmacology guidelines. Myc tagged RAMP1 and untagged RAMP3 constructs were used for AMY receptor experiments.
(§2) Primers were purchased from Integrated DNA Technologies Ltd (Coralville, IA, USA). Kapa HiFi readymix (Kapa Biosystems, Wilmington, MA, USA) or Primestar HS enzymes (TaKaRa Bio, Kyoto, Japan) were substituted for Pfu polymerase.
(§3) After stimulation the reaction was stopped by removing media and adding 50 μl per well of ice-cold absolute ethanol. Plates were stored at −30 °C for up to 4 days before the measurement of cAMP was performed.

[2] = target: T2, CT(a) receptor, Y131A mutant (Homo sapiens, UniProt P30988, Y131A); assay: cAMP assay, Y131A CT(a)
T2 sequence (P30988 25-474 Y131A): T1 sequence (P30988 25-474 H121A) with A97H, Y107A
Description: as §1, §2, §3

[3] = target: T3, CT(a) receptor, F99A mutant (Homo sapiens, UniProt P30988, F99A); assay: cAMP assay, F99A CT(a)
T3 sequence (P30988 25-474 F99A): T1 sequence (P30988 25-474 H121A) with F75A, A97H
Description: as §1, §2, §3

[4] = target: T4, CT(a) receptor, W128A mutant (Homo sapiens, UniProt P30988, W128A); assay: cAMP assay, W128A CT(a)
T4 sequence (P30988 25-474 W128A): T1 sequence (P30988 25-474 H121A) with A97H, W104A
Description: as §1, §2, §3

[5] = target: T5, CT(a) receptor, W79A mutant (Homo sapiens, UniProt P30988, W79A); assay: cAMP assay, W79A CT(a)
T5 sequence (P30988 25-474 W79A): T1 sequence (P30988 25-474 H121A) with W55A, A97H
Description: as §1, §2, §3

## CC(C)C[C@H](NC(=O)CNC(=O)[C@H](C)NC(=O)[C@H](CC(C)C)NC(=O)[C@H](CCCNC(=N)N)NC(=O)[C@H](Cc1cnc[nH]1)NC(=O)[C@@H](NC(=O)[C@@H](NC(=O)[C@@H]1CSSC[C@H](NC(=O)[C@H](C)N)C(=O)N[C@@H](CC(=O)O)C(=O)N[C@@H]([C@@H](C)O)C(=O)N[C@@H](C)C(=O)N[C@@H]([C@@H](C)O)C(=O)N1)C(C)C)[C@@H](C)O)C(=O)N[C@@H](CC(C)C)C(=O)N[C@@H](CO)C(=O)N[C@@H](CCCNC(=N)N)C(=O)N[C@@H](CO)C(=O)NCC(=O)NCC(=O)N[C@H](C(=O)N[C@H](C(=O)N[C@@H](CCCCN)C(=O)N[C@@H](CC(N)=O)C(=O)N[C@@H](CC(N)=O)C(=O)N[C@@H](Cc1ccccc1)C(=O)N[C@H](C(=O)N1CCC[C@H]1C(=O)N[C@H](C(=O)N[C@@H](CC(N)=O)C(=O)N[C@H](C(=O)NCC(=O)N[C@@H](CO)C(=O)N[C@@H](CCCCN)C(=O)N[C@@H](C)C(=O)N[C@@H](Cc1ccccc1)C(N)=O)C(C)C)[C@@H](C)O)C(C)C)C(C)C)C(C)C [hαCGRP, human αCGRP]
[1]
  EC50: 263 nM
[2]
  EC50: 309 nM
[3]
  EC50: […]
[4]
  EC50: 182 nM
[5]
  EC50: 447 nM
